The values below come from paper PMC6628648, “Enabling microbial syringol conversion through structure-guided protein engineering” (Proceedings of the National Academy of Sciences of the …, 2019).

For one test, the target named is T1, WT GcoA (Amycolatopsis sp., UniProt P0DPQ7).
T1 construct: GST (N, cleaved yes); made in house; host or cells: E. coli Rosetta 2 (DE3)
The experiment in a line: biochemical. In kind it is binding, Amycolatopsis sp. ATCC 39116. The settings on record: for %Fe(III) spin state conversion: WT GcoA, final high-spin (388 nm) divided by starting low-spin (417 nm).

In the next test the target is GcoA-F169A (Amycolatopsis sp., UniProt P0DPQ7, F169A). Briefly: H2O2 detection via HRP and Amplex Red (uncoupling reaction). The note with it: referenced to NADH consumed. Also noted: GST (N, cleaved yes); made in house; host or cells: E. coli Rosetta 2 (DE3). In kind it is biochemical, Amycolatopsis sp. ATCC 39116. The procedure:
A colorimetric assay involving HRP and Amplex Red was used to quantify H2O2 in the reaction between GcoA-F169A GcoA/GcoB, NADH and guaiacol, syringol, or 3MC, as described in SI Appendix. […]
vi = Vmax[S]/(KM + [S]) (4) […]
The reaction of each aliquot was immediately quenched with 12.5
μL saturated ammonium sulfate, 7% v/v H2SO4 (pH 2.0) prior to loading onto the HPLC column. [Substrate] disappearance was referenced to GcoA (0.2 µM) and fit to a linear line to determine specific activity.
Data analysis. The consumption of NADH and subsequent production of formaldehyde and aromatic product were measured in triplicate and the error reported as ±1 standard deviation. To determine the statistical significance between NADH consumption and the products produced, the p-value was determined for all runs containing guaiacol, syringol, and 3MC. These values were calculated using two degrees of freedom, a tail value of two, and assuming a t-statistical value for unequal variances.
Detection of H2O2 via horseradish peroxidase (HRP) and Amplex Red assay. The reaction between 100 μM guaiacol or 3MC with 0.2 μM F169A/GcoB and 100 μM NADH in air-saturated buffer (25 mM HEPES, 50 mM NaCl, pH 7.5) was monitored continuously in a quartz cuvette, using the NADH consumption assay described above. The same thing was done for syringol, but with either 100 or 200 μM NADH. When there was no longer any change in the spectra, e.g., the reaction was completed, 100 μL was removed from the cuvette and pipetted into a 96-well microplate. A 5 mL solution containing 50 μL of 10 mM Amplex Red (prepared in DMSO and stored at -20 °C) and 100 μL of 10 U/mL HRP was made up in the above buffer. 100 μL of this was added to each of the wells with each reaction sample. The plate was incubated in the dark at room temperature for 30 min, at which point the absorbance at […]
572 nm was recorded by a Varioskan Lux microplate reader (Thermo Scientific). The absorbance was compared to a standard curve with 0-100 μM H2O2 to quantify the amount of peroxide produced in the reactions.
Purified protein was buffer exchanged into 10 mM HEPES pH 7.5 and concentrated to an A280 value of 12, as measured on a NanoDrop 2000 spectrophotometer (Thermo Fisher). Crystals of GcoA were grown with 2.4 M sodium malonate and 200 mM substrate, dissolved in 40% DMSO where necessary. Crystals were cryocooled directly in liquid N2 without further addition of cryoprotectants. All data were collected at Diamond Light Source (Harwell, UK). For each crystal, 1800 images were taken at 0.1o increments using the default wavelength of 0.9795Å on beamline i04. Data was captured on a Pilatus 6M-F detector. […]

SMILES strings stand for the structures.

GcoA-F169A, sequence (P0DPQ7 whole entry F169A): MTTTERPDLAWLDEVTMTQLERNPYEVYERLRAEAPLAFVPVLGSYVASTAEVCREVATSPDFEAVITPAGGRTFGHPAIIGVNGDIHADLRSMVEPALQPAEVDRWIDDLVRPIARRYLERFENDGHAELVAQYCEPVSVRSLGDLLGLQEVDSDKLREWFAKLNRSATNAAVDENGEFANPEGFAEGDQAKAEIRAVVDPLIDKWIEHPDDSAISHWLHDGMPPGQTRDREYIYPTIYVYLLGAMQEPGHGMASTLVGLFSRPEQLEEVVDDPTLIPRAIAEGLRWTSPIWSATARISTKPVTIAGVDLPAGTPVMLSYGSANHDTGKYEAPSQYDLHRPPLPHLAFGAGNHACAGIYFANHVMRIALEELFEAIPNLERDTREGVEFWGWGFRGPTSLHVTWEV
T1 sequence (P0DPQ7 whole entry): as the sequence (P0DPQ7 whole entry F169A) above, with A169F counted along it

For `COc1cccc(O)c1O` [3MC, 3-methoxycatechol], the “%Fe(III) spin state conversion” value at WT GcoA came out at 62 ± 0.01%. Further, the “% H2O2 produced” value on GcoA-F169A (100 µM substrate + 100 µM NADH) was determined as 17 ± 0.2%.
For `COc1cccc(OC)c1O` [syringol, 2,6-dimethoxyphenol], the “%Fe(III) spin state conversion” value on WT GcoA turned out to be 56 ± 2%. Further, the figures for the “% H2O2 produced” value on GcoA-F169A (100 µM substrate + 100 µM NADH) and at GcoA-F169A (100 µM substrate + 200 µM NADH) were 7.4 ± 0.03% and 7.9 ± 0.5%, respectively.
What is called Kd is the free concentration of one partner at which half of the binding sites on the other are occupied at equilibrium, for simple one-to-one binding. Higher therefore signals a looser complex. Consider `COc1ccccc1O` [guaiacol, 2-methoxyphenol], for which, on WT GcoA, binding was characterised by a dissociation constant (Kd) of 6.5 ± 2 nM and the “%Fe(III) spin state conversion” value is 87 ± 1%. Also, the “% H2O2 produced” value at GcoA-F169A (100 µM substrate + 100 µM NADH) is recorded as 3.7 ± 0.6%.
